Reference: patent publication US20250222028A1, “ENGINEERED IMMUNE CELL PLATFORM” (Cancer Research Technology Limited, priority 2022, published 2025)

Columns and labels:
Gli1 = Gli1 expression by qRT-PCR in anti-CD3ε-stimulated murine CD8+ CTLs; assay type: cell-based
Experimental: FIG. 1. L-type Cav channel agonists increase Gli1 expression and enhance specific cell killing by murine CD8+ CTLs. CD8^+ T cells were isolated from the spleen and inguinal lymph nodes of Rag2^−/− OT-I mice, and CTLs were generated. (A) Cells were restimulated on day 9/10 for 3 hours using plate-bound anti-CD3ε in the presence of indicated concentrations of FPL 64176 or carrier control. RNA was extracted and Gli1 expression was assessed by qRT-PCR. Data is n=3 independent experiments. us=unstimulated cells. (B) An LDH cytotoxicity assay was performed using OT-I CTLs. On day 7, CTLs were co-cultured with Ova peptide-pulsed EL-4 cells in the presence of 10 μM FPL 64176 (squares) or carrier control (circles). Data is n=4 independent experiments. (C) Updated experiment of (A). Data is now n=4 independent experiments. Data is normalised to Tbp as a reference gene. 0h=unstimulated cells. (D) Same data as (B) represented differently. […] Error bars indicate SD. p values were calculated using an unpaired two-tailed Student's t test (C) or a two-way ANOVA (B/D). * indicates p<0.05, ** indicates p<0.01, **** indicates p<0.0001.
FIG. 2. FPL 64176 but not (R)-Baclofen nor Nefiracetam enhance Gli1 expression in murine CD8+ CTLs. Naïve CD8^+ T cells were isolated from the spleens of OT-I Rag2^−/− mice and CTLs were generated. Cells were restimulated using an anti-CD3ε mAb in the presence indicated concentrations of (A) FPL 64176, (B) (R)-Baclofen or (C) Nefiracetam (or carrier control). CTLs were pre-incubated with the relevant pharmacological agents for 40-50 mins prior to stimulation (ensuring sufficient time for the agents, e.g., FPL 64176, to enter the cell. Gli1 expression was assessed by qRT-PCR. Data is n=2 independent experiments. Error bars indicate SD.
To investigate a potential role for L-type Cav channel agonists in modulating CD8+ CTL activation and effector function, CD8+ T cells were isolated from the spleen and inguinal lymph nodes of Rag2−/− OT-I mice and CTLs were generated. […] OT-I mice bear a transgene encoding for a TCR that recognises a chicken ovalbumin (Ova) peptide fragment. Rag2−/− OT-I mice facilitate the isolation of naïve CD8+ T cell populations. Plates were coated using 2.5 μg/mL anti-CD3ε mAb and CD8+ CTLs were stimulated for 3 hours via the TCR in the presence of 5 or 10 μM FPL 64176, an L-type Cav channel agonist, or carrier control. Note that CD8+ CTLs were pre-incubated with FPL 64176 or carrier control for 40-50 mins before stimulation. Gli1 expression was assessed using qRT-PCR.
In brief, naïve CD8+ T cells were isolated from the spleen and inguinal lymph nodes of C57BL/6 wildtype mice and CTLs were generated. […] RNA was extracted from cells and Gli1 expression was assessed by qRT-PCR. […]

CD8+ T cells = assay: Flow cytometric analysis of viability, proliferation and memory subsets of CD8+ T cells; assay type: cell-based; details: 10 μM, 24 h
Experimental: FIG. 11. […] Naïve CD8+ T cells were stimulated with plate-bound anti-CD3/CD28 antibodies for 24 h in the presence of 10 μM FPL64176 or carrier control before flow cytometric analysis (FIG. 11A-D). (A) Quantitative analysis of live cell numbers. (B) Percentage of cells positive for the apoptotic marker Apotracker™ Green. (C) Percentage of cells positive for cell viability dye DAPI. (D) Analysis of T cell subsets based on the expression of CD44 and CD62L: CD44− CD62L+ (naïve), CD44+ CD62L+ (central memory), and CD44+ CD62L− (effector memory). (FIG. 11E-G) CTLs were restimulated on day 10 with plate-bound anti-CD3 antibody for 24 h in the presence of 10 μM FPL64176 or carrier control before flow cytometric analysis. (E) Quantitative analysis of live cell numbers. (F) Percentage of cells positive for the apoptotic marker Apotracker™ Green. (G) Percentage of cells positive for the cell viability dye DAPI. […]
To ensure that the use of L-type Cav agonist is not adversely affecting immune cells, general cell functions were assessed. […]

## COC(=O)c1c(C)[nH]c(C)c1C(=O)c1ccccc1Cc1ccccc1 [FPL 64176]
Gli1; anti-CD3ε restimulation 6 hours, indicated concentrations, vs carrier control (FIG. 2)
  Gli1 expression following TCR activation: successfully enhances
Gli1; anti-CD3ε stimulation 3 hours, 5 or 10 μM, pre-incubation 40-50 mins, vs carrier control
  Gli1 expression: dose-dependent increase
CD8+ T cells; naïve CD8+ T cells stimulated with anti-CD3/CD28
  memory phenotypes (CD44/CD62L subsets): does not affect
CD8+ T cells; live cell numbers, Apotracker Green, DAPI
  viability or proliferation of naïve and cytotoxic CD8+ T cells: does not impair
